Results reported in ChEMBL document CHEMBL1201862, “PubChem BioAssay data set” (2004).
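Five concentrations, 48 hours, 96-well plates. Here, GI50 denotes the concentration required for 50% inhibition of growth.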 The source made the active and inactive calls. Cut-off read from the data, not from the text of the source: active = GI50 up to about 1.1 µM and inactive = higher.

How the values were obtained:
Test in all cases: inhibition of tumour cell growth, NCI panel, 48 h
[1] = system: CCRF-CEM
[2] = system: HL-60
[3] = system: HT-29
[4] = system: IGROV-1
[5] = system: K562
[6] = system: M14
[7] = system: NCI-H23
[8] = system: NCI-H522
[9] = system: OVCAR-3
[10] = system: OVCAR-5
[11] = system: OVCAR-8
[12] = system: SF-268
[13] = system: SF-539
[14] = system: SK-MEL-28
[15] = system: SK-OV-3
[16] = system: SN12C
[17] = system: UO-31
[18] = system: DU-145
[19] = system: Hs-578T
[20] = system: MCF7

Measured: GI50

N#C/C(=C\c1cc2ccccc2c2ccccc12)c1ccccc1
inactive: [1] 3.59 µM | [2] 3.04 µM | [3] 4.45 µM | [4] 11.8 µM | [5] 3.13 µM | [6] 6.05 µM | [7] > 30.5 µM | [8] 5.83 µM | [9] 3.45 µM | [10] 45.4 µM | [11] 30 µM | [12] 8.17 µM | [13] 6.15 µM | [14] 24 µM | [15] 6.73 µM | [16] 9.59 µM | [17] 22.2 µM

O=C1NC(=S)N/C1=C\c1ccc(Cl)cc1
inactive: [1] 54.2 µM | [18] 99.8 µM | [3] > 100 µM | [19] 50.4 µM | [4] > 100 µM | [6] > 100 µM | [20] > 100 µM | [7] > 100 µM | [8] > 100 µM | [9] > 100 µM | [10] > 100 µM | [11] > 100 µM | [12] > 100 µM | [13] > 100 µM | [14] > 100 µM | [15] > 100 µM | [16] > 100 µM | [17] 53.7 µM

Brc1ccc(/C=N/C23CC4CC(CC(C4)C2)C3)cc1
inactive: [1] > 100 µM | [2] > 100 µM | [3] > 100 µM | [4] > 100 µM | [5] > 100 µM | [6] > 100 µM | [7] > 100 µM | [8] > 100 µM | [9] > 100 µM | [10] > 100 µM | [11] > 100 µM | [12] > 100 µM | [13] > 100 µM | [14] > 100 µM | [15] > 100 µM | [16] > 100 µM | [17] > 100 µM

O=C(O)Cc1c[nH]c2ccc(F)cc12
inactive: [1] > 100 µM | [18] > 100 µM | [2] > 100 µM | [3] > 100 µM | [4] > 100 µM | [5] > 100 µM | [6] > 100 µM | [20] > 100 µM | [7] > 100 µM | [9] > 100 µM | [10] > 100 µM | [11] > 100 µM | [13] > 100 µM | [14] > 100 µM | [15] > 100 µM | [16] > 100 µM | [17] > 100 µM

CC(=O)OCC1OC(n2c(C)c(C(C)=O)c(-c3ccc(Cl)cc3)c(C#N)c2=S)C(OC(C)=O)C(OC(C)=O)C1OC(C)=O (stereo not given)
inactive: [1] > 100 µM | [18] > 100 µM | [2] > 100 µM | [3] > 100 µM | [4] > 100 µM | [5] > 100 µM | [6] > 100 µM | [20] > 100 µM | [7] > 100 µM | [8] > 100 µM | [9] > 100 µM | [11] > 100 µM | [12] > 100 µM | [13] > 100 µM | [14] > 100 µM | [15] > 100 µM | [16] > 100 µM | [17] > 100 µM

C=C(C(=O)OCC)C(=O)OCC
inactive: [1] > 100 µM | [18] > 100 µM | [3] > 100 µM | [19] > 100 µM | [4] > 100 µM | [5] > 100 µM | [6] > 100 µM | [20] > 100 µM | [7] > 100 µM | [8] > 100 µM | [9] > 100 µM | [10] > 100 µM | [11] > 100 µM | [12] > 100 µM | [13] > 100 µM | [14] > 100 µM | [15] > 100 µM | [16] > 100 µM | [17] > 100 µM

Cn1cc(C[C@@H](N)C(=O)O)c2ccccc21 [INDOXIMOD]
inactive: [1] > 100 µM | [18] > 100 µM | [2] > 100 µM | [3] > 100 µM | [4] > 100 µM | [5] > 100 µM | [6] > 100 µM | [20] > 100 µM | [7] > 100 µM | [8] > 100 µM | [9] > 100 µM | [10] > 100 µM | [11] > 100 µM | [12] > 100 µM | [13] > 100 µM | [14] > 100 µM | [15] > 100 µM | [16] > 100 µM | [17] > 100 µM
